Converted amounts (≈) assume the structure as drawn. “Also recorded” adds a separate entry of the source.
Columns and labels:
[1] = tested on: cells involved in the inflammatory response; test: Cellular inflammatory response in transgenic larvae (LYZ:Red) after SVCV infection, treatment by microinjection; format: in vivo, Danio rerio; details: microinjection 2 nl concomitant with SVCV, 2 hpi, vs control groups
Method: (§1) Anti-inflammatory activity studies of the compounds were carried out in wild type fish, determining the expression levels of the pro-inflammatory cytokines IL-1β and IL-6. Transgenic larvae with labeled fluorescent neutrophils (Tg(Mpx:GFP)i114) or fluorescent myeloid cells (Tg(LYZ:Red)) were also used to assess how different treatments affect the inflammatory response of these cells. The inflammatory stimulus used was both the virus itself, which causes activation of the inflammasome and death of macrophages by pyroptosis (Varela et al. J. Virol. 2016, 88, 12026), as well as an acute stimulus of inflammation generated by a wound in the tail. The migration of fluorescent leukocytes from these transgenic lines was studied by means of microscopy and image analysis.
In a first assay, the cellular response to inflammation was quantified in transgenic Danio rerio larvae (LYZ:Red) after an infection with SVCV treated or untreated (control) with the AG1 compounds (28 μM), AG3 (10 μM), AG4 (10 μM), AG5 (10μM) and EAp (10 μg/ml). The treatments were carried out by microinjection (2 nl in the duct of Cuvier) of the drugs in fish 3 days post-fertilization (5-10 fish/well), concomitantly administering the virus and the different compounds. […] At 2 h post-injection (2 hpi), the number of cells involved in the inflammatory response was determined.

Wistar rats [2] = test: Single intravenous dose toxicity (phase I, OECD 425); format: in vivo; details: AG-5 in PBS (3 mg/ml)
Method: (§2) As part of the preclinical toxicity evaluation, the purpose of this study was to define the maximum repeated dose (MRD) of AG-5, formulated as a solution in PBS (3 mg/ml), in a mammalian rodent species under good laboratory practice (GLP) and to provide data of toxicological interest. To this end, a two-phase study was designed: i) in phase I, the product was administered intravenously in a single dose and following OECD guidelines 425 (OECD Guidelines for the testing of chemicals. Guidelines 425: Acute oral toxicity: up and down procedure. Adopted 3 Oct. 2008), to a total of 12 8-week old female Wistar rats by means of a dose escalation process (incremental factor 3.2), the maximum tolerated dose (MTD) was provisionally determined; ii) in phase II, the animals (a total of 8-week old Wistar rats, 15 males and 15 females) were given a daily intravenous administration for 7 days and the MRD was confirmed.
The initial dose to be used in phase I was selected from the sequence of doses included in OECD guidelines 425, that is, 5.5, 17.5 and 30 mg/kg of body weight. The doses to be tested in phase II were determined based on the results obtained in phase I, selecting 3 doses from the dose interval lower than that in which serious toxic effects would have been observed, that is, 15, 20 and 30 mg/kg/day, with 30 mg/kg being the maximum feasible dose (MFD), in application of the ICH M3(R2) guideline (ICH Harmonized Tripartite Guideline. Non-Clinical Safety Studies for the Conduct of Human Clinical Trials and Marketing Authorization for Pharmaceuticals M3 (R2). Current Step 5 version dated 11 Jun. 2009). The study considered the complete assessment of the symptoms, that is, intensity, time of onset and reversibility, the study of analytical (hematological and biochemical) parameters and the determination of the weight of toxicity target organs, to be fundamental.

[3] = tested on: migration of neutrophils to the wound; test: Acute inflammatory response produced by a tail wound, neutrophil migration in Tg(Mpx:GFP)i114 larvae, bath treatment; format: in vivo, Danio rerio; details: 10 μM by bath, tail cut after 24 hours, neutrophils counted 24 hours after the wound
Method: as §1
In a second assay, the effect of the different compounds on an acute inflammatory response produced by a wound was analyzed. To that end, transgenic fish with fluorescent neutrophils (Tg(Mpx:GFP)i114) were used and their migration to the affected area was analyzed. The AG1 (5 μM), AG3 (5 μM), AG4 (10 μM), AG5 (10 μM) compounds and EAp (10 μg/ml) were administered by bath and after 24 hours the wound was made by cutting the end area of the tail. After 24 hours, neutrophils that migrated to the area of the wound were counted. […] FIG. 3.

IL-6 = IL-6 gene expression by qPCR in wild type larvae infected with SVCV, bath treatment; format: in vivo, Danio rerio; details: 10 μM bath for 24 h, then SVCV injection, qPCR at 24 h, vs untreated control groups
Method: as §1
In a third and final assay, the gene expression of proinflammatory cytokines was determined in Danio rerio (wild type) larvae treated with the AG1 (5 μM), AG3 (5 μM), AG4 (10 μM), AG5 (10 μM) compounds and EAp (10 μg/ml), and subsequently infected with SVCV. The treatments were carried out in a bath for 24 h on fish 1 day post-fertilization (10 fish/well). The experiment was carried out in quadruplicate (n=4). On the second day post-fertilization each fish was injected (2 nl in the duct of Cuvier) 5×10^4 TCID50/mL of SVCV. At 24 h, the expression of IL-6 was determined by qPCR.

[4] = Solubility of the product in PBS; format: physicochemical; details: aqueous buffer
[5] = tested on: Salmonella typhimurium strains TA98, TA100, TA102, TA1535 and TA1537; test: Ames test; format: cell-based
Method: The aim of the study was to characterize the possible genotoxic effect of the assay product AG-5 by means of the Ames test (Ames et al. Proc. Nat. Acad. Sci. USA 1973, 70, 783). To that end, it was determined in a study carried out under GLP whether AG-5 has the ability to produce gene mutations, either by substitution or by mismatch, in Salmonella typhimurium bacteria histidine (His-) auxotrophs.
The study was carried out with strains TA98, TA100, TA102, TA1535 and TA1537 in the presence and in the absence of metabolic activation (S9 mixture). The doses recommended by the OECD guidelines were tested: 100 mg/ml, that is, equivalent to 5000 μg/plate, and […] other lower concentrations (33.3; 11.1; 3.7 and 1.2 mg/ml). […] The results were negative in the 5 bacterial strains (TA98, TA100, TA102, TA1535 and TA1537) both in the presence and in the absence of metabolic activation.

New Zealand rabbits [6] = test: Repeated dose toxicity, daily intravenous administration for 7 days (phase II); format: in vivo; details: AG-5 in PBS (3 mg/ml), intravenous daily for 7 days
Method: (§3) As part of the preclinical evaluation of toxicity, the purpose of this study was to define the MRD of AG-5, formulated as a solution in PBS (3 mg/ml), in a non-rodent mammalian species, that is, rabbit, under GLP and to provide data of toxicological interest.
(§4) To this end, a two-phase study was designed: i) in phase I, the product was administered intravenously in a single dose and following OECD guidelines 425, to a total of 4 New Zealand rabbits (2 males and 2 females) of about 2.5 kg and 12-13 weeks old, and the maximum tolerated dose (MTD) range was provisionally determined; ii) in phase II, the animals (a total of 4 New Zealand rabbits of about 2.5 kg and 12-13 weeks old) were given a daily intravenous administration for 7 days and the MRD that will serve as a reference (highest dose to be used) was confirmed.
(§5) The initial dose to be used in phase I was selected based on the data obtained by the laboratory after the administration of AG-5 in rats at a repeated dose of up to 30 mg/kg, for 7 days. In this study, the dose of 30 mg/kg was established as the MRD to be used in subsequent general toxicity studies. […] The dose to be tested in phase II was determined based on the results obtained in phase I, selecting a dose from the dose interval lower than that at which serious toxic effects would have been observed, with a maximum of 15 mg/kg/day as MFD, in application of the ICH M3(R2) guideline. The study considered the complete assessment of the symptoms, that is, intensity, time of onset and reversibility, the study of analytical (hematological and biochemical) parameters and the determination of the weight of toxicity target organs, to be fundamental.

New Zealand rabbits [7] = test: Single intravenous dose toxicity (phase I, OECD 425); format: in vivo; details: AG-5 in PBS (3 mg/ml)
Method: as §3, §4, §5

Wistar rats [8] = test: Repeated dose toxicity, daily intravenous administration for 7 days (phase II); format: in vivo; details: AG-5 in PBS (3 mg/ml)
Method: as §2
The initial dose to be used in phase I was selected from the sequence of doses included in OECD guidelines 425, that is, 5.5, 17.5 and 30 mg/kg of body weight. […]

Structure (SMILES)	cellular inflammatory response induced by the viral infection (number of cells involved in the inflammatory response) ([1]; 28 μM)	LD50 estimated in rats (Wistar rats [2])	MTD level in rats in a single dose (Wistar rats [2])	signs of toxicity related to the administration (Wistar rats [2]; all doses tested in phase I)	inflammatory response generated by the migration of neutrophils to the wound [3]	IL-6 production (gene expression) in infection by SVCV (IL-6)	solubility [4]	precipitation of the product or toxicity (preliminary dose test) ([5]; 100 mg/ml (5000 μg/plate) and lower concentrations (33.3; 11.1; 3.7 and 1.2 mg/ml))	mutagenicity test (gene mutations) ([5]; 5 strains, in the presence and in the absence of metabolic activation (S9 mixture), up to 5000 μg/plate)	changes in analytical parameters, macroscopic alterations in abdominal and thoracic organs, absolute or relative weight of the organs (New Zealand rabbits [6]; 15 mg/kg, rabbit study)	mortality or alterations in the general symptoms (New Zealand rabbits [6]; 15 mg/kg, rabbit study)	MRD (maximum repeated dose) (New Zealand rabbits [6]; rabbits)	LD50 estimated in rabbits (New Zealand rabbits [7]; intravenous single dose)	MTD level in rabbits in a single dose (New Zealand rabbits [7]; intravenous single dose)	lethality (New Zealand rabbits [7]; intravenous single dose 15 mg/kg, New Zealand rabbits)	associated signs of toxicity (New Zealand rabbits [7]; intravenous single dose 15 mg/kg, rabbits)	cellular inflammatory response induced by the viral infection (number of cells involved in the inflammatory response) ([1]; 10 μM)	MRD (maximum repeated dose) (Wistar rats [8]; intravenous daily for 7 days)	changes in analytical parameters, macroscopic alterations in abdominal and thoracic organs, absolute or relative weight of the organs (Wistar rats [8]; intravenous daily for 7 days, 15, 20 and 30 mg/kg)
C=C1CCC2C(C)(CO)C(O)CCC2(C)C1CC=C1C(=O)OCC1O (stereo not shown) [AG1, 3-[2-[-decahydro-6-hydroxy-5-(hydroxy-methyl)-5,8a-dimethyl-2-methylene-1-naphthalenyl]ethylidene]dihydro-4-hydroxy-2(3H)-furanone, reference compound]	significantly reduce																		
C=C1CC[C@@H]2[C@](C)(CO)[C@H](O)CC[C@@]2(C)[C@@H]1C[C@H](C1=CCOC1=O)S(=O)(=O)O [AG5, 14-deoxy-12(R)-sulfo-andrographolide]		greater than 30 mg/kg of body weight	30 mg/kg of body weight	nor did it produce signs of toxicity	significantly decreased	significantly reduce	3000 µg/mL (≈ 7.24 mM)	No precipitation of the product or toxicity was observed	negative; also recorded: did not induce gene mutations	No toxicologically relevant changes	did not produce mortality or alterations in the general symptoms	15 mg/kg	greater than 15 mg/kg of body weight	15 mg/kg of body weight	did not produce lethality in any animal	No associated signs of toxicity were observed	significantly reduce	30 mg/kg	No toxicologically relevant changes

Reference: US20230372289A1, “ANDROGRAPHOLIDE DERIVATIVE FOR USE IN THE TREATMENT OF INFLAMMATORY DISEASES ASSOCIATED WITH A CYTOKINE STORM” (CONSEJO SUPERIOR DE INVESTIGACIONES CIENTÍFICAS (CSIC), priority 2020, published 2023)
